Like-named read-outs stand apart in the source and are kept apart here.
Tests used:
[1] = molecular target: purified human autoBACE-2 (Homo sapiens (Human), UniProt Q9Y5Z0); experiment: BACE-2 Assay (BACE-HTRF assay); assay type: biochemical; conditions: for Ki: Ki calculated from IC50 using the Cheng-Prusoff equation, read-out: BACE2 Ki; for inhibition at 10 µM: read-out: inhibition of BACE2 at 10 μM
Procedure: Inhibitor IC50s at purified human autoBACE-2 are determined in a time-resolved endpoint proteolysis assay that measures hydrolysis of the QSY7-[…]-Eu-amide FRET peptide substrate (BACE-HTRF assay). […] DMSO is present at 5% final concentration in the assay. Following laser excitation of sample wells at 320 nm, the fluorescence signal at 620 nm is collected for 400 ms following a 50 μs delay on a RUBYstar HTRF plate reader (BMG Labtechnologies). Raw RFU data is normalized to maximum (1.0 nM BACE/DMSO) and minimum (no enzyme/DMSO) RFU values. […] The Ki values are calculated from the IC50 using the Cheng-Prusoff equation.

[2] = molecular target: soluble human BACE1 catalytic domain (Homo sapiens (Human), UniProt P56817); experiment: BACE1 HTRF FRET Assay; conditions: for inhibition at 1 µM: read-out: BACE1 % Inh. at 1 μM, at 1 μM; for inhibition at 10 µM: read-out: BACE1 inhibition, % Inh. at 10 μM, at 10 μM
[3] = read-out: BACE1 Ki, Ki calculated from IC50 using the Cheng-Prusoff equation

soluble human BACE1 catalytic domain, sequence (P56817 75-416): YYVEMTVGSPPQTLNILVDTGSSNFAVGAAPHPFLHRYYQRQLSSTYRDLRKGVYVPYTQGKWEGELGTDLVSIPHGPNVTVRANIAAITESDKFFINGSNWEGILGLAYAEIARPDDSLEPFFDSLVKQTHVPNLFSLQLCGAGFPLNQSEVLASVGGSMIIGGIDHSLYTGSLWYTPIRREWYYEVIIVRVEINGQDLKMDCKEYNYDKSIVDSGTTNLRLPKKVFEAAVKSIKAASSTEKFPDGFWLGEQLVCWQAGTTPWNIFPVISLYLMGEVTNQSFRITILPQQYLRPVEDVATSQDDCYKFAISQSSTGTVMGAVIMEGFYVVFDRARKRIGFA
purified human autoBACE-2, sequence (Q9Y5Z0 63-473): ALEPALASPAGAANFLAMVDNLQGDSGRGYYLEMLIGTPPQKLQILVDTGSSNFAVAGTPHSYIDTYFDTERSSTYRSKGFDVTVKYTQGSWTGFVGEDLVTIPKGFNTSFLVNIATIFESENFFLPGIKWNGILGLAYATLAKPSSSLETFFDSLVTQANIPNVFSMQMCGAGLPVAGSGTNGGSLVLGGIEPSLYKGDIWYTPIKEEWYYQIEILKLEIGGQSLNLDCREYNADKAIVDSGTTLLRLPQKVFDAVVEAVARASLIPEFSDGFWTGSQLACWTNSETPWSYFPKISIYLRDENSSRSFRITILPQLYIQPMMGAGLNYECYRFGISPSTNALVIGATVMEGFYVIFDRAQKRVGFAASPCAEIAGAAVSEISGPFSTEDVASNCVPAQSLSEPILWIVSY

| SMILES | Ki [1] [nM] | Ki ([2]; read-out: BACE1 Ki) [nM] | also measured |
| --- | --- | --- | --- |
| COc1ccc(C(=O)Nc2ccc(F)c([C@]3(C)CS(=O)(=O)C(C)(C)C(=N)N3)c2F)nc1 [Example 9y] | 11 |  | Ki [2, 3]: 44 nM |
| COc1cnc(C(=O)Nc2ccc(F)c([C@]3(C)CS(=O)(=O)C(C)(C)C(=N)N3)c2F)cn1 [Example 9z] | 59 |  | Ki [2, 3]: 52.9 nM |
| CC1(C)C(=N)N[C@](C)(c2cc(-c3cc(F)cc(-c4nnco4)c3)ccc2F)CS1(=O)=O [Example 16a] | 445 |  | inhibition at 1 µM [2]: 43% |
| CC1(C)C(=N)N[C@](C)(c2sc(C(=O)Nc3cccc(Cl)n3)cc2Cl)CS1(=O)=O [Example 20] | 8 |  | Ki [2, 3]: 26.9 nM |
| CC1=NOC(CNC(=O)c2cc(Cl)c([C@]3(C)CS(=O)(=O)C(C)(C)C(=N)N3)s2)C1 (some centres unmarked) [Example 22f] | 1800 |  | Ki [2, 3]: 616 nM |
| CC1(C)C(=N)N[C@](C)(c2sc(C(=O)NCc3cccc(-c4ccon4)c3)cc2Cl)CS1(=O)=O [Example 22g] | 51 |  | Ki [2, 3]: 736 nM |
| CC1(C)C(=N)N[C@](C)(c2sc(C(=O)NCc3cc(Cl)ccn3)cc2Cl)CS1(=O)=O [Example 22u] | 77 |  | Ki [2, 3]: 2720 nM |
| CC1(C)C(=N)N[C@](C)(c2sc(-c3cncc(C#N)c3)cc2Cl)CS1(=O)=O [Example 23] | < 200 |  | Ki [2, 3]: 63 nM |
| CC1(C)C(=N)N[C@](C)(c2sc(-c3cncnc3)cc2Cl)CS1(=O)=O [Example 24] | 314 |  | Ki [2, 3]: 387 nM |
| CC1(C)C(=N)N[C@](C)(c2sc(-c3ccc(F)c(C(F)(F)F)c3)cc2Cl)CS1(=O)=O [Example 27a] | < 200 |  | Ki [2, 3]: 172 nM |
| COc1cccc2cc(-c3cc(F)c([C@]4(C)CS(=O)(=O)C(C)(C)C(=N)N4)s3)[nH]c12 [Example 27an] | ≤ 20 | 21 |  |
| CC1(C)C(=N)N[C@](C)(c2sc(-c3cccc(-c4ncon4)c3)cc2F)CS1(=O)=O [Example 27ao] | ≤ 20 | 100 |  |
| CC1(C)C(=N)N[C@](C)(c2sc(-c3cccc(C#N)c3)cc2F)CS1(=O)=O [Example 27aq] | ≤ 20 | 76 |  |
| CC1(C)C(=N)N[C@](C)(c2sc(-c3cc(F)cc(-c4nnco4)c3)cc2F)CS1(=O)=O [Example 27as] | ≤ 20 | 9.4 |  |
| CC1(C)C(=N)N[C@](C)(c2sc(-c3cc(F)cc(-c4cnco4)c3)cc2F)CS1(=O)=O [Example 27at] | ≤ 20 | 26 |  |
| CC1(C)C(=N)N[C@](C)(c2sc(-c3nnc(-c4ccc(F)cc4)o3)cc2Cl)CS1(=O)=O [Example 27bb] | ≤ 20 |  | Ki [2, 3]: 102 nM |
| CC1(C)C(=N)N[C@](C)(c2sc(-c3nnc(-c4ccc(Cl)cc4)o3)cc2Cl)CS1(=O)=O [Example 27bc] | ≤ 20 |  | Ki [2, 3]: 35.9 nM |
| CC1(C)C(=N)N[C@](C)(c2sc(-c3nnc(-c4ccc(Cl)cc4)o3)cc2F)CS1(=O)=O [Example 27bf] | ≤ 20 | 30.9 |  |
| CC1(C)C(=N)N[C@](C)(c2sc(-c3nnc(-c4ccc(F)cc4)o3)cc2F)CS1(=O)=O [Example 27bg] | ≤ 20 | 79.3 |  |
| COc1ccc(-c2nnc(-c3cc(F)c([C@]4(C)CS(=O)(=O)C(C)(C)C(=N)N4)s3)o2)cc1 [Example 27bh] | ≤ 20 | 74 |  |

| SMILES | Ki [1] [nM] | Ki ([2]; read-out: BACE1 Ki) [nM] | also measured |
| --- | --- | --- | --- |
| C[C@]1(CC(F)(F)F)C(=N)N[C@](C)(c2sc(-c3cccc(C#N)c3)cc2F)CS1(=O)=O [Example 27bj-a] | 7 | 35.7 |  |
| C[C@]1(CC(F)(F)F)C(=N)N[C@](C)(c2sc(-c3cccc(-c4nnco4)c3)cc2F)CS1(=O)=O [Example 27bk-a] | 9 | 4.7 |  |
| COc1cccc(-c2cc(F)c([C@]3(C)CS(=O)(=O)[C@@](C)(CC(F)(F)F)C(=N)N3)s2)c1 [Example 27bl-a] | 9 | 223 |  |
| CC1(CC(F)(F)F)C(=N)N[C@](C)(c2sc(-c3ccc(F)c(C#N)c3)cc2F)CS1(=O)=O (some centres unmarked) [Example 27bm-a] | 7 | 35 |  |
| C[C@@]1(c2sc(-c3cccc(C#N)c3)cc2F)CS(=O)(=O)[C@@](C)(c2cccc(F)c2)C(=N)N1 [Example 27br-a] | 10 | 58.5 |  |
| C[C@@]1(c2sc(-c3cccc(C#N)c3)cc2F)CS(=O)(=O)[C@@](C)(c2ccccc2F)C(=N)N1 [Example 27bs-a] | 9 | 68.3 |  |
| COc1cccc2cc(-c3cc(Cl)c([C@]4(C)CS(=O)(=O)[C@@](C)(CC5CCOCC5)C(=N)N4)s3)[nH]c12 [Example 27bx] | ≤ 10 | 18 |  |
| CC1(C)C(=N)N[C@](C)(c2sc(-c3cccc(C(F)(F)F)c3)cc2Cl)CS1(=O)=O [Example 27e] | ≤ 10 | 74.5 |  |
| CC1(C)C(=N)N[C@](C)(c2sc(-c3cncc(Cl)c3)cc2Cl)CS1(=O)=O [Example 27l] | ≤ 10 | 92.2 |  |
| CC1(C)C(=N)N[C@](C)(c2sc(-c3cc(Cl)cc(C#N)c3)cc2Cl)CS1(=O)=O [Example 27s] | ≤ 10 | 64.9 |  |
| CC1(C)C(=N)N[C@](C)(c2sc(-c3cccc(-n4nccn4)c3)cc2Cl)CS1(=O)=O [Example 27u] | ≤ 10 | 49.2 |  |
| COc1ccccc1Nc1ccc(F)c(C2(C)CS(=O)(=O)C(C)(C)C(=N)N2)n1 (centres unmarked) [Example 30a] | 517 |  | Ki ([2]; BACE1 Ki (nM)): 5280 nM |
| CC1(C)C(=N)N[C@](C)(c2cc(Nc3noc4cc(F)cnc34)ccc2F)CS1(=O)=O [Example 30b] | 5 | 22 |  |
| Cc1nc2cc(CC3(C)C(=N)N[C@](C)(c4cc(F)ccc4F)CS3(=O)=O)ccc2s1 (some centres unmarked) [Example 32-a] |  |  | inhibition at 10 µM [1]: 1 to 24%; BACE1 inhibition, % Inh. at 10 μM ([2]; at 10 μM): 0% Inh at 10 μM |
| COc1cccc([C@]2(C)C(=N)N[C@](C)(c3cc(F)ccc3F)CS2(=O)=O)c1 [Example 32e-b] |  |  | inhibition at 10 µM [1]: 1 to 24%; inhibition at 10 µM [2]: 22% |
| C[C@@]1(c2ccc(F)cc2F)CS(=O)(=O)[C@@](C)(c2cccc(Br)c2)C(=N)N1 [Example 32g-a] | 145 | 381 |  |
| C[C@@]1(c2ccc(F)cc2F)CS(=O)(=O)[C@@](C)(c2cccc(C(F)(F)F)c2)C(=N)N1 [Example 32h-a] | 126 | 362 |  |
| C[C@@]1(c2cccc(OCc3ccccc3)c2)C(=N)N[C@](C)(c2cc(F)ccc2F)CS1(=O)=O [Example 34d-b] |  |  | inhibition at 10 µM [1]: 10%; inhibition at 10 µM [2]: 16% |
| CC1(C)C(=N)N[C@](C)(c2sc(N3Cc4cc(F)ccc4C3=O)cc2Cl)CS1(=O)=O [Example 35a] | 1400 | 6080 |  |
| CC1(C)C(=N)N[C@](C)(c2cc(-c3cccc(C#N)c3)ccc2F)CS1(=O)=O [compound 10] | < 200 |  | inhibition at 1 µM [2]: 36% |

Reference: patent US9499502B2, “5-substituted iminothiazines and their mono- and dioxides as BACE inhibitors, compositions, and their use” (Merck Sharp & Dohme Corp., priority 2011, dated 2016)
